# Data published in patent publication EP0012729A1, “Therapeutic compositions containing as active compound a substituted acetic acid or its salt” ("IBIS" ISTITUTO BIOCHIMICO SPERIMENTALE S.p.A., priority 1978, dated 1980).
# Test system: Wistar rats
# Assay: Choleretic activity in the rat, bile fistula method
# Format: in vivo
# Conditions: for R.S. (dry residue): pooled bile; for ml of bile flow ± s.e.: second series
# Source text: It is known that the primary effect of a choleretic agent is to increase the bile flow and the quantity of solid substances excreted with the bile. A good choleretic must provide this effect in a sufficiently intense and prolonged manner. In addition, as in the case of all drugs, it must have low acute toxicity and good general tolerability, but in particular must be free from toxic effects on the organ on which it is required to act, i.e. the liver, whether this is in a normal or pathological state. The analysis of the new product in comparison with the best known products for the same therapeutic use has therefore been focused on these aspects. The choleretic activity of the new product has been determined in the rat by using the bile fistula method. Wistar rats of both sexes and having a weight of between 180 and 240 g were used.
# The animals, which were kept fasting for 12 hours but with free access to water, were narcotised by ethyl urethane in a dose of 1 g/kg by intra peritoneal or intramuscular injection.
# After binding the animals to the retention bed, a median laparatomy was carried out, and when the bile duct had been isolated a cannula needle was inserted into it. A polythene tube was then inserted into those ani mals which were to receive the products intraduodenally, after which a su ture was carried out on the abdominal wall, and the bile was allowed to discharge for 30 minutes after inserting the cannula in the bile duct, so as to allow the discharge to become normal. The bile was then collec ted for one hour.
# Having determined the volume of bile discharged during this first hour of collection (base volume), the products under examination were administered at the predetermined doses and by the predetermined methods. The bile excreted by the individual animals was then collected over each hour for a further six hours.
# During the experiments, the animals were kept at ambient temperature of about 22°C, and at regular intervals of two hours received 10 ml/kg of physiological solution s.c.
# The liquids were administered at a temperature of 37°C.
# The bile flow and cholesterol excretion were determined on those bile fractions excreted by the animals over each hour starting from the base hour until the end of the experiment
# The dry residue (R.So) was determined on the bile fraction excreted during the base hour and on the total bile fractions excreted during the sub sequent hours. For practical reasons, the determination of the dry residue and of the cholesterol (carried out by the Sperry & Webb method) were carried out on the pool of bile excreted by the entire group of animals subjected to the same treatment instead of on the bile fractions excreted by the individual animals (which was sometimes insufficient for determining the cholesterol).
# In compiling the graphs, the differences between the choleresis in the treated animals and that in the controls was calculated over the considered time intervals, and expressed as a percentage of the base choleresis. For this calculation, the following formula was used: [formula] where Cn and C' represent the choleresis (in ml/kg/h for the bile flow, and in mg/kg/h for the dry residue) determined over the considered time interval for the group of treated animals and the group of controls respectively. Cb and C'b represent the base choleresis in the group of treated animals and group of controls respectively.
# This index was calculated as the time for halving the maximum choleresis increase recorded under their effect.
smiles,measurement,setting,value
"C[C@H](CCC(=O)O)[C@H]1CC[C@H]2[C@@H]3C(=O)C[C@@H]4CC(=O)CC[C@]4(C)[C@H]3CC(=O)[C@]12C [Dehydrocholic acid, dehydrocholic acid]",Flow,"25 mg/kg p.o., 0 (base hour)","2,46±0,05 ml/kg/h"
same,R.S. (dry residue),"25 mg/kg p.o., 0 (base hour)","59,8 mg/kg/h"
same,Flow,"25 mg/kg p.o., 1h","3,33±0,14 ml/kg/h"
same,R.S. (dry residue),"25 mg/kg p.o., 1h","84,1 mg/kg/h"
same,Flow,"25 mg/kg p.o., 2h","1,88±0,14 ml/kg/h"
same,Flow,"25 mg/kg p.o., 3h","2,19±0,15 ml/kg/h"
same,Flow,"25 mg/kg p.o., 4h","1,92±0,17 ml/kg/h"
same,Flow,"25 mg/kg p.o., 5h","1,77±0,16 ml/kg/h"
same,Flow,"25 mg/kg p.o., 6h","1,29±0,15 ml/kg/h"
same,R.S. (dry residue),"25 mg/kg p.o., subsequent hours 2h-6h","41,0 mg/kg/h"
same,Flow,"50 mg/kg i.d., 0 (base hour)","2,31±0,15 ml/kg/h"
same,R.S. (dry residue),"50 mg/kg i.d., 0 (base hour)","61,9 mg/kg/h"
same,Flow,"50 mg/kg i.d., 1 h","3,82±0,26 ml/kg/h"
same,R.S. (dry residue),"50 mg/kg i.d., 1 h","98,5 mg/kg/h"
same,Flow,"50 mg/kg i.d., 2 h","2,51±0,17 ml/kg/h"
same,Flow,"50 mg/kg i.d., 3 h","2,63±0,19 ml/kg/h"
same,Flow,"50 mg/kg i.d., 4 h","1,93±0,12 ml/kg/h"
same,Flow,"50 mg/kg i.d., 5 h","1,87±0,13 ml/kg/h"
same,Flow,"50 mg/kg i.d., 6 h","1,45±0,14 ml/kg/h"
same,R.S. (dry residue),"50 mg/kg i.d., subsequent hours 2h-6h (printed under 4 h)","44,5 mg/kg/h"
same,Flow,"100 mg/kg i.d., 0 (base hour)","1,80±0,09 ml/kg/h"
same,R.S. (dry residue),"100 mg/kg i.d., 0 (base hour)","52,3 mg/kg/h"
same,Flow,"100 mg/kg i.d., 1 h","4,59±0,24 ml/kg/h"
same,R.S. (dry residue),"100 mg/kg i.d., 1 h","147,0 mg/kg/h"
same,Flow,"100 mg/kg i.d., 2 h","2,45±0,10 ml/kg/h"
same,Flow,"100 mg/kg i.d., 3 h","1,98±0,09 ml/kg/h"
same,Flow,"100 mg/kg i.d., 4 h","1,82±0,09 ml/kg/h"
same,Flow,"100 mg/kg i.d., 5 h","1,82+0,08 ml/kg/h"
same,Flow,"100 mg/kg i.d., 6 h","1,55±0,08 ml/kg/h"
same,R.S. (dry residue),"100 mg/kg i.d., subsequent hours 2h-6h (printed under 4 h)","49,9 mg/kg/h"
same,Flow,"100 mg/kg p.o., 0 (base hour)","2,23±0,22 ml/kg/h"
same,R.S. (dry residue),"100 mg/kg p.o., 0 (base hour)","55,4 mg/kg/h"
same,Flow,"100 mg/kg p.o., 1h","3,75±0,75 ml/kg/h"
same,R.S. (dry residue),"100 mg/kg p.o., 1h","98,6 mg/kg/h"
same,Flow,"100 mg/kg p.o., 2h","2,60±0,24 ml/kg/h"
same,Flow,"100 mg/kg p.o., 3h","2,15±0,28 ml/kg/h"
same,Flow,"100 mg/kg p.o., 4h","2,10±0,24 ml/kg/h"
same,Flow,"100 mg/kg p.o., 5h","1,64±0,20 ml/kg/h"
same,Flow,"100 mg/kg p.o., 6h","1,64±0,24 ml/kg/h"
same,R.S. (dry residue),"100 mg/kg p.o., subsequent hours 2h-6h","45,5 mg/kg/h"
same,Flow,"200 mg/kg i.d., 0 (base hour)","2,28±0,09 ml/kg/h"
same,R.S. (dry residue),"200 mg/kg i.d., 0 (base hour)","71,0 mg/kg/h"
same,Flow,"200 mg/kg i.d., 1 h","8,10±0,38 ml/kg/h"
same,R.S. (dry residue),"200 mg/kg i.d., 1 h","255,0 mg/kg/h"
same,Flow,"200 mg/kg i.d., 2 h","3,76±0,10 ml/kg/h"
same,Flow,"200 mg/kg i.d., 3 h","2,69±0,07 ml/kg/h"
same,Flow,"200 mg/kg i.d., 4 h","2,77±0,13 ml/kg/h"
same,Flow,"200 mg/kg i.d., 5 h","2,34±0,11 ml/kg/h"
same,Flow,"200 mg/kg i.d., 6 h","2,16±0,08 ml/kg/h"
same,R.S. (dry residue),"200 mg/kg i.d., subsequent hours 2h-6h (printed under 4 h)","67,0 mg/kg/h"
same,Peak choleresis time of appearance,200 mg/kg p.o. (dose given for 1620 only),1st hour
same,Peak choleresis % increase,"200 mg/kg p.o. (dose given for 1620 only), increase over controls as percentage of base choleresis",94%
same,Duration index,"200 mg/kg p.o. (dose given for 1620 only), time for halving the maximum choleresis increase",45'
same,Flow,"200 mg/kg p.o., 0 (base hour)","2,75±0,17 ml/kg/h"
same,R.S. (dry residue),"200 mg/kg p.o., 0 (base hour)","85,8 mg/kg/h"
same,Flow,"200 mg/kg p.o., 1h","5,39±0,24 ml/kg/h"
same,R.S. (dry residue),"200 mg/kg p.o., 1h","171,9 mg/kg/h"
same,Flow,"200 mg/kg p.o., 2h","3,50±0,13 ml/kg/h"
same,Flow,"200 mg/kg p.o., 3h","2,64±0,19 ml/kg/h"
same,Flow,"200 mg/kg p.o., 4h","2,78±0,18 ml/kg/h"
same,Flow,"200 mg/kg p.o., 5h","2,61±0,13 ml/kg/h"
same,Flow,"200 mg/kg p.o., 6h","2,38±0,14 ml/kg/h"
same,R.S. (dry residue),"200 mg/kg p.o., subsequent hours 2h-6h","74,9 mg/kg/h"
same,Flow,"400 mg/kg p.o., 0 (base hour)","2,53±0,10 ml/kg/h"
same,R.S. (dry residue),"400 mg/kg p.o., 0 (base hour)","71,8 mg/kg/h"
same,Flow,"400 mg/kg p.o., 1h","7,68±0,20 ml/kg/h"
same,R.S. (dry residue),"400 mg/kg p.o., 1h","238,6 mg/kg/h"
same,Flow,"400 mg/kg p.o., 2h","4,70±0,45 ml/kg/h"
same,Flow,"400 mg/kg p.o., 3h","3,06±0,15 ml/kg/h"
same,Flow,"400 mg/kg p.o., 4h","2,59±0,16 ml/kg/h"
same,Flow,"400 mg/kg p.o., 5h","2,29±0,12 ml/kg/h"
same,Flow,"400 mg/kg p.o., 6h","1,97±0,15 ml/kg/h"
same,R.S. (dry residue),"400 mg/kg p.o., subsequent hours 2h-6h","77,8 mg/kg/h"
same,ml of bile flow ± s.e.,"oral by gastric probe 25 mg/kg, 0 (base values)","2,4±0,21 ml"
same,ml of bile flow ± s.e.,"oral by gastric probe 25 mg/kg, 1 h","3,0±0,25 ml"
same,ml of bile flow ± s.e.,"oral by gastric probe 25 mg/kg, 2 h","2,0±0,12 ml"
same,ml of bile flow ± s.e.,"oral by gastric probe 25 mg/kg, 3 h","1,9±0,11 ml"
same,ml of bile flow ± s.e.,"oral by gastric probe 25 mg/kg, 4 h","1,7±0,13 ml"
same,ml of bile flow ± s.e.,"oral by gastric probe 25 mg/kg, 5 h","1,7±0,10 ml"
same,ml of bile flow ± s.e.,"oral by gastric probe 25 mg/kg, 6 h","1,4±0,11 ml"
same,ml of bile flow ± s.e.,"oral by gastric probe 50 mg/kg, 0 (base values)","2,5±0,16 ml"
same,ml of bile flow ± s.e.,"oral by gastric probe 50 mg/kg, 1 h","3,9±0,18 ml"
same,ml of bile flow ± s.e.,"oral by gastric probe 50 mg/kg, 2 h","2,1±0,16 ml"
same,ml of bile flow ± s.e.,"oral by gastric probe 50 mg/kg, 3 h","1,9±0,14 ml"
same,ml of bile flow ± s.e.,"oral by gastric probe 50 mg/kg, 4 h","1,8±0,17 ml"
same,ml of bile flow ± s.e.,"oral by gastric probe 50 mg/kg, 5 h","1,7±0,11 ml"
same,ml of bile flow ± s.e.,"oral by gastric probe 50 mg/kg, 6 h","1,5±0,13 ml"
